Values quoted from earlier work, collected in patent US10702520B1, “Pharmaceutical compositions of posaconazole” (SLAYBACK PHARMA LLC, priority 2019, dated 2020).
Where two headings read alike, the source gives them in different places.

| solubility (in 0.1 N Hydrochloric acid) [µg/mL] | solubility (in water) | solubility (at gastric pH) | solubility (pH about 6.4 or higher) | SMILES |
| --- | --- | --- | --- | --- |
| 6 | less than 1 μg/mL |  |  | CCC(C)n1ncn(-c2ccc(N3CCN(c4ccc(OC[C@H]5CO[C@](Cn6cncn6)(c6ccc(Cl)cc6Cl)O5)cc4)CC3)cc2)c1=O (mixture of isomers) [Itraconazole] |
|  |  | approximately 0.8 mg/mL | less than 1 μg/mL | CC[C@@H]([C@H](C)O)n1ncn(-c2ccc(N3CCN(c4ccc(OC[C@@H]5CO[C@@](Cn6cncn6)(c6ccc(F)cc6F)C5)cc4)CC3)cc2)c1=O [Posaconazole free base, 4-[4-[4-[4-[[(3R,5R)-5-(2,4-difluorophenyl)tetrahydro-5-(1H-1,2,4-triazol-1-ylmethyl)-3-furanyl]methoxy]phenyl]-1-piperazinyl]phenyl]-2-[(1S,2S)-1-ethyl-2-hydroxypropyl]-2,4-dihydro-3H-1,2,4-triazol-3-one] |
